Experimental data taken from publication PMC12174747, “Ligand Screening and Discovery Using Cocktail Soaking and Automated Microcrystal Electron Diffraction” (Chemmedchem, 2025).
Structures can show the parent of a compound that is named as a salt. Where two headings read alike, the source gives them in different places.

Columns and labels:
[1] = molecular target: T1, thermolysin (Bacillus thermoproteolyticus, UniProt P00800); assay: MicroED crystal structure (cocktail and individual soaking) and microscale thermophoresis; assay type: binding
T1 construct: gene npr
T1 sequence (P00800 233-548): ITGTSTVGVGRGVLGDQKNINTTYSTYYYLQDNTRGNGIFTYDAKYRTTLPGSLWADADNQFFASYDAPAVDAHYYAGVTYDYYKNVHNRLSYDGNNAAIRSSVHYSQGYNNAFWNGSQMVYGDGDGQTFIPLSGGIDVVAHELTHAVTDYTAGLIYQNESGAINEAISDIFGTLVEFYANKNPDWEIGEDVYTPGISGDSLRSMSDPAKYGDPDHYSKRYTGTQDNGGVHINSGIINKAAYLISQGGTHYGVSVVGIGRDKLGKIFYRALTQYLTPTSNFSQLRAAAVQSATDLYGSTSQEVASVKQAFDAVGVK

[2] = molecular target: T2, proteinase K (Parengyodontium album, UniProt P06873); assay: as above; assay type: binding
T2 construct: gene PROK
T2 sequence (P06873 106-384): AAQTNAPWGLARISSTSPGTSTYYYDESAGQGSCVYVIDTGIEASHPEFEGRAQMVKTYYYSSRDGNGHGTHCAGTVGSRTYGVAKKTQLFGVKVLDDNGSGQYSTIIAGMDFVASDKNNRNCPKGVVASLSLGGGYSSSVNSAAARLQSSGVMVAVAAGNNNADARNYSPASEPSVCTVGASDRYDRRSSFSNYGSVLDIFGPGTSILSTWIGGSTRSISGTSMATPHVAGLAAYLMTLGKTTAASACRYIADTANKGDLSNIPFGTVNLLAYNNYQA

O=C(O)CNC(=O)C(CS)Cc1ccccc1 (stereo not drawn) [compound 2, thiorphan]
Kd ([1]; read-out: Kd): 4 µM

CC(C)C[C@H](NP(=O)(O)O[C@@H]1O[C@@H](C)[C@H](O)[C@@H](O)[C@H]1O)C(=O)N[C@@H](Cc1c[nH]c2ccccc12)C(=O)O [compound 1, phosphoramidon disodium salt]
Kd [1]: 0.345 µM

benzenesulfonyl fluoride hydrochloride [compound 4]
Kd [2]: 260 µM
